# Where a SMILES comes first, the peptide text is derived from it. [ ]: non-standard residue; d: D form. The star is where a group is joined. NHCH2CH2OH = OCCN*; For = O=C*
# Tests used:
# [1] = test system: P388 mouse leukemia cells; conditions: 92 h
# Procedure, shortened: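 P388 cells at 1 × 10^4 cells/mL (final) were exposed to library peptides (stocks diluted 250-fold in RPMI1640/10% FBS) for 92 h at 37 °C, 5% CO2. Viable cells were counted by WST-1/1-methoxy PMS (4 h), absorbance 415 nm, and expressed as cell viability (%).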
# [2] = test system: Streptococcus pyogenes SSI-9; test: Antibacterial activity assay of bead-derived peptides (three concentrations); type: cell-based; design: key: +++: inhibition by the 640-fold diluted peptide solution; ++: inhibition by the 160-fold diluted solution; +: inhibition by the 40-fold diluted solution; -: no inhibition; conditions: S. pyogenes, bead-derived peptide solution, three concentrations
# Procedure, shortened: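 Library peptide stock applied undiluted, 4-fold and 16-fold diluted in DMSO to S. pyogenes SSI-9 (2 × 10^5 CFU) in cation-adjusted Mueller Hinton broth with 5% laked horse blood. After 18 h at 37 °C, growth judged by visible cell precipitation.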
# [3] = H+/Na+ transport assay of bead-derived peptides (one-point); type: biochemical; design: key: relative activity; mean of two control wells = 1.00; conditions: bead-derived peptide solution, EYPC/EYPG LUVs;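 note: relative to parent gramicidin A activity set to 1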
# Procedure, shortened: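 Pyranine (1.0 mM)-loaded LUVs containing egg yolk phosphatidylglycerol were prepared by film hydration, sonication and extrusion, then mixed with diluted bead-derived peptide in 96-well format and vortexed 30 min at room temperature. Fluorescence was normalized between untreated LUVs (0%) and Triton X-100 lysis (100%).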
Structure (SMILES),cell viability/% [1],antibacterial activity [2],H+/Na+ transport activity normalized against the value of 1 (1.00) [3]
CC(C)C[C@@H](NC(=O)[C@H](C)NC(=O)CNC(=O)[C@@H](NC=O)C(C)C)C(=O)N[C@@H](C)C(=O)N[C@H](CC(C)C)C(=O)N[C@H](C(=O)N[C@H](CC(C)C)C(=O)N[C@@H](Cc1c[nH]c2ccccc12)C(=O)N[C@H](CC(C)C)C(=O)N[C@@H](Cc1c[nH]c2ccccc12)C(=O)N[C@@H](C(=O)N[C@@H](Cc1c[nH]c2ccccc12)C(=O)N[C@@H](C(=O)N[C@@H](Cc1c[nH]c2ccccc12)C(=O)NCCO)C(C)C)C(C)C)C(C)C [compound 4313] (For-VGA[dL]A[dL]V[dL]W[dL]W[dV]W[dV]W-NHCH2CH2OH),3.2%,+,1.21
CC(C)C[C@@H](NC(=O)[C@H](C)NC(=O)CNC(=O)[C@@H](NC=O)C(C)C)C(=O)N[C@@H](C)C(=O)N[C@H](CC(C)C)C(=O)N[C@H](C(=O)N[C@H](CC(C)C)C(=O)N[C@@H](Cc1c[nH]c2ccccc12)C(=O)N[C@@H](C(=O)N[C@@H](Cc1c[nH]c2ccccc12)C(=O)N[C@H](CC(C)C)C(=O)N[C@@H](Cc1c[nH]c2ccccc12)C(=O)N[C@@H](C(=O)N[C@@H](Cc1c[nH]c2ccccc12)C(=O)NCCO)C(C)C)[C@H](C)O)C(C)C [compound 7480] (For-VGA[dL]A[dL]V[dL]W[dT]W[dL]W[dV]W-NHCH2CH2OH),100.0%,-,1.01
CC(C)C[C@@H](NC(=O)[C@H](C)NC(=O)[C@H](NC(=O)[C@H](C)NC(=O)CNC(=O)[C@@H](NC=O)C(C)C)[C@H](C)O)C(=O)N[C@H](C(=O)N[C@H](CC(C)C)C(=O)N[C@@H](Cc1c[nH]c2ccccc12)C(=O)N[C@@H](C(=O)N[C@@H](Cc1c[nH]c2ccccc12)C(=O)N[C@@H](C(=O)N[C@@H](Cc1c[nH]c2ccccc12)C(=O)N[C@H](CC(C)C)C(=O)N[C@@H](Cc1c[nH]c2ccccc12)C(=O)NCCO)C(C)C)C(C)C)C(C)C [compound 2242] (For-VGA[dT]A[dL]V[dL]W[dV]W[dV]W[dL]W-NHCH2CH2OH),100.0%,-,1.15
CC(C)C[C@@H](NC(=O)[C@H](C)NC(=O)[C@H](NC(=O)[C@H](C)NC(=O)CNC(=O)[C@@H](NC=O)C(C)C)C(C)C)C(=O)N[C@H](C(=O)N[C@@H](C(=O)N[C@@H](Cc1c[nH]c2ccccc12)C(=O)N[C@H](CC(C)C)C(=O)N[C@@H](Cc1c[nH]c2ccccc12)C(=O)N[C@H](CC(C)C)C(=O)N[C@@H](Cc1c[nH]c2ccccc12)C(=O)N[C@@H](C(=O)N[C@@H](Cc1c[nH]c2ccccc12)C(=O)NCCO)C(C)C)C(C)C)C(C)C [compound 12789] (For-VGA[dV]A[dL]V[dV]W[dL]W[dL]W[dV]W-NHCH2CH2OH),9.6%,-,1.04
CC(C)C[C@@H](NC(=O)[C@H](Cc1c[nH]c2ccccc12)NC(=O)[C@H](NC(=O)[C@@H](NC(=O)[C@H](NC(=O)[C@H](C)NC(=O)[C@H](NC(=O)[C@H](C)NC(=O)CNC(=O)[C@@H](NC=O)C(C)C)C(C)C)C(C)C)C(C)C)[C@H](C)O)C(=O)N[C@@H](Cc1c[nH]c2ccccc12)C(=O)N[C@@H](C(=O)N[C@@H](Cc1c[nH]c2ccccc12)C(=O)N[C@@H](C(=O)N[C@@H](Cc1c[nH]c2ccccc12)C(=O)NCCO)C(C)C)C(C)C [compound 9910] (For-VGA[dV]A[dV]V[dT]W[dL]W[dV]W[dV]W-NHCH2CH2OH),100.0%,-,1.07
CC(C)C[C@@H](NC(=O)[C@H](C)NC(=O)[C@H](NC(=O)[C@H](C)NC(=O)CNC(=O)[C@@H](NC=O)C(C)C)[C@H](C)O)C(=O)N[C@H](C(=O)N[C@H](CC(C)C)C(=O)N[C@@H](Cc1c[nH]c2ccccc12)C(=O)N[C@@H](C(=O)N[C@@H](Cc1c[nH]c2ccccc12)C(=O)N[C@H](CC(C)C)C(=O)N[C@@H](Cc1c[nH]c2ccccc12)C(=O)N[C@H](CC(C)C)C(=O)N[C@@H](Cc1c[nH]c2ccccc12)C(=O)NCCO)C(C)C)C(C)C [compound 7890] (For-VGA[dT]A[dL]V[dL]W[dV]W[dL]W[dL]W-NHCH2CH2OH),100.0%,-,1.11
CC(C)C[C@@H](NC(=O)[C@H](C)NC(=O)CNC(=O)[C@@H](NC=O)C(C)C)C(=O)N[C@@H](C)C(=O)N[C@H](CC(C)C)C(=O)N[C@H](C(=O)N[C@H](CC(C)C)C(=O)N[C@@H](Cc1c[nH]c2ccccc12)C(=O)N[C@H](CC(C)C)C(=O)N[C@@H](Cc1c[nH]c2ccccc12)C(=O)N[C@@H](C(=O)N[C@@H](Cc1c[nH]c2ccccc12)C(=O)N[C@@H](C(=O)N[C@@H](Cc1c[nH]c2ccccc12)C(=O)NCCO)C(C)C)[C@H](C)O)C(C)C [compound 3143] (For-VGA[dL]A[dL]V[dL]W[dL]W[dT]W[dV]W-NHCH2CH2OH),99.9%,+,1.04
CC(C)C[C@@H](NC(=O)[C@H](C)NC(=O)CNC(=O)[C@@H](NC=O)C(C)C)C(=O)N[C@@H](C)C(=O)N[C@H](CC(C)C)C(=O)N[C@H](C(=O)N[C@H](CC(C)C)C(=O)N[C@@H](Cc1c[nH]c2ccccc12)C(=O)N[C@H](CC(C)C)C(=O)N[C@@H](Cc1c[nH]c2ccccc12)C(=O)N[C@@H](C(=O)N[C@@H](Cc1c[nH]c2ccccc12)C(=O)N[C@@H](C(=O)N[C@@H](Cc1c[nH]c2ccccc12)C(=O)NCCO)C(C)C)C(C)C)C(C)C [compound 11214] (For-VGA[dL]A[dL]V[dL]W[dL]W[dV]W[dV]W-NHCH2CH2OH),2.6%,-,1.02
CC(C)C[C@@H](NC(=O)[C@H](C)NC(=O)[C@H](NC(=O)[C@H](C)NC(=O)CNC(=O)[C@@H](NC=O)C(C)C)[C@H](C)O)C(=O)N[C@H](C(=O)N[C@@H](C(=O)N[C@@H](Cc1c[nH]c2ccccc12)C(=O)N[C@H](CC(C)C)C(=O)N[C@@H](Cc1c[nH]c2ccccc12)C(=O)N[C@H](CC(C)C)C(=O)N[C@@H](Cc1c[nH]c2ccccc12)C(=O)N[C@@H](C(=O)N[C@@H](Cc1c[nH]c2ccccc12)C(=O)NCCO)C(C)C)C(C)C)C(C)C [compound 5522] (For-VGA[dT]A[dL]V[dV]W[dL]W[dL]W[dV]W-NHCH2CH2OH),100.0%,-,1.27
CC(C)C[C@@H](NC(=O)[C@H](C)NC(=O)[C@H](NC(=O)[C@H](C)NC(=O)CNC(=O)[C@@H](NC=O)C(C)C)C(C)C)C(=O)N[C@H](C(=O)N[C@@H](C(=O)N[C@@H](Cc1c[nH]c2ccccc12)C(=O)N[C@@H](C(=O)N[C@@H](Cc1c[nH]c2ccccc12)C(=O)N[C@@H](C(=O)N[C@@H](Cc1c[nH]c2ccccc12)C(=O)N[C@@H](C(=O)N[C@@H](Cc1c[nH]c2ccccc12)C(=O)NCCO)C(C)C)C(C)C)C(C)C)[C@H](C)O)C(C)C [compound 12283] (For-VGA[dV]A[dL]V[dT]W[dV]W[dV]W[dV]W-NHCH2CH2OH),100.0%,-,1.08
CC(C)C[C@@H](NC(=O)[C@H](C)NC(=O)CNC(=O)[C@@H](NC=O)C(C)C)C(=O)N[C@@H](C)C(=O)N[C@@H](C(=O)N[C@H](C(=O)N[C@@H](C(=O)N[C@@H](Cc1c[nH]c2ccccc12)C(=O)N[C@@H](C(=O)N[C@@H](Cc1c[nH]c2ccccc12)C(=O)N[C@H](CC(C)C)C(=O)N[C@@H](Cc1c[nH]c2ccccc12)C(=O)N[C@@H](C(=O)N[C@@H](Cc1c[nH]c2ccccc12)C(=O)NCCO)C(C)C)C(C)C)C(C)C)C(C)C)C(C)C [compound 1289] (For-VGA[dL]A[dV]V[dV]W[dV]W[dL]W[dV]W-NHCH2CH2OH),95.6%,+,1.03
CC(C)C[C@@H](NC(=O)[C@H](C)NC(=O)CNC(=O)[C@@H](NC=O)C(C)C)C(=O)N[C@@H](C)C(=O)N[C@@H](C(=O)N[C@H](C(=O)N[C@H](CC(C)C)C(=O)N[C@@H](Cc1c[nH]c2ccccc12)C(=O)N[C@H](CC(C)C)C(=O)N[C@@H](Cc1c[nH]c2ccccc12)C(=O)N[C@@H](C(=O)N[C@@H](Cc1c[nH]c2ccccc12)C(=O)N[C@H](CC(C)C)C(=O)N[C@@H](Cc1c[nH]c2ccccc12)C(=O)NCCO)[C@H](C)O)C(C)C)C(C)C [compound 11425] (For-VGA[dL]A[dV]V[dL]W[dL]W[dT]W[dL]W-NHCH2CH2OH),41.5%,+,1.12
CNC(=O)C[C@@H](NC(=O)[C@@H](NC(=O)[C@H](NC(=O)[C@H](C)NC(=O)[C@H](NC(=O)[C@H](C)NC(=O)CNC(=O)[C@@H](NC=O)C(C)C)C(C)C)C(C)C)C(C)C)C(=O)N[C@@H](Cc1c[nH]c2ccccc12)C(=O)N[C@H](CC(C)C)C(=O)N[C@@H](Cc1c[nH]c2ccccc12)C(=O)N[C@H](CC(C)C)C(=O)N[C@@H](Cc1c[nH]c2ccccc12)C(=O)N[C@@H](C(=O)N[C@@H](Cc1c[nH]c2ccccc12)C(=O)NCCO)C(C)C [compound 5771] (For-VGA[dV]A[dV]V[dD](NHMe)W[dL]W[dL]W[dV]W-NHCH2CH2OH),79.3%,-,1.46
